The target of data set [1] is T1, human β3 adrenergic receptor (Homo sapiens, UniProt P13945).
T1 construct: Full length β3 AR clones (402 amino acids) containing the last 6 amino acids of hβ3-AR are prepared; expressed in transfected cells; host or cells: CHO (Chinese hamster ovary) cells
The experiment in a line: cAMP (SPA) response in CHO cells transfected with human β3 adrenergic receptor. It is filed as cell-based. The arrangement: key: fraction of maximal isoproterenol (10^-5 M) response. To be noted: maximal response relative to maximal response of isoproterenol at 10^-5 M. In short, it runs like this:
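Reactions were stopped with 0.2N HCl and neutralised, and cAMP was measured by SPA. Activity is expressed as percent of the maximal 10^−5 M isoproterenol response.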

T1 sequence (P13945 whole entry): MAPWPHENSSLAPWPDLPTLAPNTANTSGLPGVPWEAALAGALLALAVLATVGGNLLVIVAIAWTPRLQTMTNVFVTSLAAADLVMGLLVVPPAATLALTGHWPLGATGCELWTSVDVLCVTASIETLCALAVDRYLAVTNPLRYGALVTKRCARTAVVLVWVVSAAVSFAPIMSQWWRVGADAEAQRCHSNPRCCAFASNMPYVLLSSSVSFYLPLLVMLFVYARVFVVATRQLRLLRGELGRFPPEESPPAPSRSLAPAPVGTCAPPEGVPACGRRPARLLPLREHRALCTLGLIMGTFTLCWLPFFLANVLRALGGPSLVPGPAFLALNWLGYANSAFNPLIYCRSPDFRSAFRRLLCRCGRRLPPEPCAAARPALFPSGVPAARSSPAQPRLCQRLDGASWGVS

As for `CCOC(=O)CCNC(=O)c1ccc(N2CCC(NC[C@H](O)c3ccc(O)c(NS(C)(=O)=O)c3)CC2)cc1` [Example 193, Ethyl3-[(4-{4-[((2R)-2-hydroxy-2-{4-hydroxy-3-[(methylsulfonyl)amino]phenyl}-ethyl)amino]-1-piperidinyl}benzoyl)amino]propanoate.], the melting point was > 95 °C (dec.). Further, the “IA(β3)” value in data set [1] was determined as 0.9.

Consider `CS(=O)(=O)Nc1cc([C@@H](O)CNC2CCN(c3ccc(C(=O)N[C@@H](CCC(=O)O)C(=O)O)cc3)CC2)ccc1O` [Example 194, (2S)-2-[(4-{4-[((2R)-2-Hydroxy-2-{4-hydroxy-3-[(methylsulfonyl)amino]phenyl}-ethyl)amino]-1-piperidinyl}benzoyl)amino]pentanedioic acid], for which the melting point is > 230 °C (dec.). Further, the “IA(β3)” value in data set [1] was determined as 0.88.

With `CS(=O)(=O)Nc1cc([C@@H](O)CNC2CCN(c3ccc(C(=O)NCCC(=O)O)cc3)CC2)ccc1O` [Example 195, N-(4-{4-[((2R)-2-Hydroxy-2-{4-hydroxy-3-[(methylsulfonyl)amino]phenyl}ethyl)amino]-1-piperidinyl}benzoyl)-bete-alanine], the melting point is > 170 °C (dec.). Further, the “IA(β3)” value in data set [1] is 0.98.

Consider `CCOC(=O)CNC(=O)c1ccc(N2CCC(NC[C@H](O)c3ccc(O)c(NS(C)(=O)=O)c3)CC2)cc1` [Example 196, Ethyl[(4-{4-[((2R)-2-hydroxy-2-{4-hydroxy-3-[(methylsulfonyl)amino]phenyl}ethyl)amino]-1-piperidinyl}benzoyl)amino]acetate], for which the melting point was > 140 °C (dec.). Also, in data set [1], the “IA(β3)” value is 1.1.

For `CCOC(=O)[C@H](CC(C)C)NC(=O)c1ccc(N2CCC(NC[C@H](O)c3ccc(O)c(NS(C)(=O)=O)c3)CC2)cc1` [Example 198, (2S)-2-(4-{4-[(2R)-2-Hydroxy-2-(4-hydroxy-3-methanesulfonylamino-phenyl)-ethylamino]-piperidin-1-yl}-benzoylamino)-4-methyl-pentanoic acid ethyl ester:], the melting point is > 85 °C (dec.). In addition, the “IA(β3)” value in data set [1] is 0.97.

As to `COC(=O)[C@@H]1CCCN1C(=O)c1ccc(N2CCC(NC[C@H](O)c3ccc(O)c(NS(C)(=O)=O)c3)CC2)cc1` [Example 200, 1-(4-{4-[(2R)-2-Hydroxy-2-(4-hydroxy-3-methanesulfonylamino-phenyl)-ethylamino]-piperidin-1-yl}-benzoyl)-pyrrolidine-(2S)-2-carboxylic acid methyl ester], the melting point is > 80 °C (dec.). Besides, in data set [1], the “IA(β3)” value came out at 1.1.

With `CCOC(=O)[C@@H](NC(=O)c1ccc(N2CCC(NC[C@H](O)c3ccc(O)c(NS(C)(=O)=O)c3)CC2)cc1)C(C)C` [Example 202, (2S)-2-(4-{4-[(2R)-2-Hydroxy-2-(4-hydroxy-3-methanesulfonylamino-phenyl)-ethylamino]-piperidin-1-yl}-benzoylamino)-3-methyl-butyric acid ethyl ester], the melting point was > 85 °C (dec.). Also, the “IA(β3)” value in data set [1] stood at 1.2.

`COC(=O)[C@H](Cc1ccccc1)NC(=O)c1ccc(N2CCC(NC[C@H](O)c3ccc(O)c(NS(C)(=O)=O)c3)CC2)cc1` [Example 204, (2S)-2-(4-{4-[(2R)-2-Hydroxy-2-(4-hydroxy-3-methanesulfonylamino-phenyl)-ethylamino]-piperidin-1-yl}-benzoylamino)-3-phenyl-propionic acid methyl ester]: the melting point was > 98 °C (dec.). Further, the “IA(β3)” value in data set [1] was 1.2.

With `COC(=O)C1(NC(=O)c2ccc(N3CCC(NC[C@H](O)c4ccc(O)c(NS(C)(=O)=O)c4)CC3)cc2)CC1` [Example 206], the melting point is > 110 °C (dec.). Moreover, in data set [1], the “IA(β3)” value was determined as 0.94.

On to `CCCCN(CC(=O)OCC)C(=O)c1ccc(N2CCC(NC[C@H](O)c3ccc(O)c(NS(C)(=O)=O)c3)CC2)cc1` [Example 207, [Butyl-(4-{4-[(2R)-2-hydroxy-2-(4-hydroxy-3-methanesulfonylamino-phenyl)-ethylamino]-piperidin-1-yl}-benzoyl)-amino]-acetic acid ethyl ester], for which the melting point is > 60 °C (dec.). Besides, the “IA(β3)” value in data set [1] came out at 1.

Take `COC(=O)CNC(=O)c1ccc(N2CCC(NC[C@H](O)c3ccc(O)c(NS(C)(=O)=O)c3)CC2)cc1` [Example 208, Methyl[(4-{4-[((2R)-2-hydroxy-2-{4-hydroxy-3-[(methylsulfonyl)amino]phenyl}ethyl)amino]-1-piperidinyl}benzoyl)amino]acetate]: the melting point was > 75 °C (dec.). The “IA(β3)” value in data set [1] is recorded as 0.97.

Regarding `COC(=O)[C@H](CC(C)C)NC(=O)c1ccc(N2CCC(NCC(O)c3ccc(O)c(NS(C)(=O)=O)c3)CC2)cc1` (stereo partly drawn) [Example 209, (2S)-2-(4-{4-[2-Hydroxy-2-(4-hydroxy-3-methanesulfonylamino-phenyl)-ethylamino]-piperidin-1-yl}-benzoylamino)-4-methyl-pentanoic acid methyl ester], the melting point was > 90 °C (dec.). Moreover, the “IA(β3)” value in data set [1] was 1.

In turn, `CS(=O)(=O)Nc1cc([C@@H](O)CNC2CCN(c3ccc(/C=C/C(=O)O)cc3)CC2)ccc1O` [Example 210, (2E)-3-(4-{4-[(2R)-2-Hydroxy-2-(4-hydroxy-3-methanesulfonylamino-phenyl)-ethylamino]-piperidin-1-yl}-phenyl)-acrylic acid] gave a melting point of 220 °C. For the same molecule, in data set [1], the “IA(β3)” value amounted to 1.36.

With `CC(C)C[C@@H](CO)NC(=O)c1ccc(N2CCC(NC[C@H](O)c3ccc(O)c(NS(C)(=O)=O)c3)CC2)cc1` [Example 211, 4-{4-[((2R)-2-Hydroxy-2-{4-hydroxy-3-[(methylsulfonyl)amino]phenyl}ethyl)amino]-1-piperidinyl}-N-[(1S)-1-(hydroxymethyl)-3-methylbutyl]benzamide], the melting point was 120 to 122 °C. In addition, the “IA(β3)” value in data set [1] is given as 1.

`CS(=O)(=O)Nc1cc([C@@H](O)CNC2CCN(c3ccc(C(=O)N[C@H]4CCCCNC4=O)cc3)CC2)ccc1O` [Example 212] registered a melting point of 135 to 137 °C. In addition, the “IA(β3)” value in data set [1] stood at 1.1.

In turn, `CCCCN(Cc1nnn[nH]1)C(=O)c1ccc(N2CCC(NC[C@H](O)c3ccc(O)c(NS(C)(=O)=O)c3)CC2)cc1` [Example 213, N-Butyl-4-{4-[((2R)-2-hydroxy-2-{4-hydroxy-3-[(methylsulfonyl)amino]phenyl}-ethyl)amino]-1-piperidinyl}-N-(1H-tetraazol-5-ylmethyl)benzamide] registered a melting point of 168 to 170 °C. For the same molecule, the “IA(β3)” value in data set [1] is listed as 0.97.

Take `CCCC(=O)Nc1ccc(N2CCC(NC[C@H](O)COc3cccc4[nH]c(=O)[nH]c34)CC2)cc1` [Example 386, N-{4-[4-({(2S)-2-Hydroxy-3-[(2-oxo-2,3-dihydro-1H-benzimidazol-4-yl)oxy]propyl}-amino)-1-piperidinyl]phenyl}butanamide]: the melting point fell in the range of 190 to 201 °C. For the same molecule, the “IA(β3)” value in data set [1] was 0.89.

In the case of `CCCC(=O)Nc1ccc(N2CCC(NC[C@H](O)COc3cccc4[nH]c5ccccc5c34)CC2)cc1` [Example 387, N-[4-(4-{[(2S)-3-(9H-Carbazol-4-yloxy)-2-hydroxypropyl]amino}-1-piperidinyl)phenyl]butanamide], the melting point fell in the range of 194 to 199 °C. In data set [1], the “IA(β3)” value is listed as 0.56.

Take `COc1ccc(C(=O)Nc2ccc(N3CCC(NC[C@H](O)COc4ccc(O)cc4)CC3)cc2)cc1OC` [Example 388, N-[4-(4-{[(2S)-2-Hydroxy-3-(4-hydroxyphenoxy)propyl]amino}-1-piperidinyl)phenyl]-3,4-dimethoxybenzamide]: the melting point was 77 to 84 °C. The “IA(β3)” value in data set [1] came out at 0.75.

`COc1ccc(C(=O)Nc2ccc(N3CCC(NC[C@H](O)COc4cccc5[nH]c6ccccc6c45)CC3)cc2)cc1OC` [Example 389, N-[4-(4-{[(2S)-3-(9H-Carbazol-4-yloxy)-2-hydroxypropyl]amino}-1-piperidinyl)phenyl]3,4-dimethoxybenzamide]: the melting point lay within 183 to 191 °C. Further, the “IA(β3)” value in data set [1] is reported as 0.61.

In turn, `O=C(Nc1ccc(N2CCC(NC[C@H](O)COc3cccc4[nH]c(=O)[nH]c34)CC2)cc1)c1ccc2c(c1)OCO2` [Example 390, N-{4-[4-({(2S)-2-Hydroxy-3-[(2-oxo-2,3-dihydro-1H-benzimidazol-4-yl)oxy]propyl}-amino)-1-piperidinyl]phenyl}-1,3-benzodioxole-5-carboxamide] returned a melting point of 160 to 169 °C. For the same molecule, in data set [1], the “IA(β3)” value is reported as 0.82.

In turn, `O=C(Nc1ccc(N2CCC(NC[C@H](O)COc3cccc4[nH]c5ccccc5c34)CC2)cc1)c1ccc2c(c1)OCO2` [Example 391, N-[4-(4-{[(2S)-3-(9H-Carbazol-4-yloxy)-2-hydroxypropyl]amino}-1-piperidinyl)phenyl]-1,3-benzodioxole-5-carboxamide] had a melting point of 217 to 223 °C. Further, in data set [1], the “IA(β3)” value is listed as 0.81.

As to `O=C(CCC1CCCC1)Nc1ccc(N2CCC(NC[C@H](O)COc3cccc4[nH]c(=O)[nH]c34)CC2)cc1` [Example 392, 3-Cyclopentyl-N-{4-[4-({(2S)-2-hydroxy-3-[(2-oxo-2,3-dihydro-1H-benzimidazol-4-yl)oxy]propyl}amino)-1-piperidinyl]phenyl}propanamide], the melting point is 140 to 144 °C. The “IA(β3)” value in data set [1] stood at 0.9.

For the molecule `CS(=O)(=O)Nc1cc([C@@H](O)CNC2CCN(c3ccc(NC(=O)CCC4CCCC4)cc3)CC2)ccc1O` [Example 393, 3-Cyclopentyl-N-(4-{4-[((2R)-2-hydroxy-2-{4-hydroxy-3-[(methylsulfonyl)amino]phenyl}-ethyl)amino]-1-piperidinyl}phenyl)propanamide], the melting point fell in the range of 82 to 90 °C. The “IA(β3)” value in data set [1] was 1.

These data come from patent publication US7022716B2, “Cyclic amine phenyl beta-3 adrenergic receptor agonists” (Wyeth, priority 2000, dated 2006).
